Laboratory results reported in patent publication US8809341B2, “2,4-pyrimidinediamine compounds and uses as anti-proliferative agents” (Rigel Pharmaceuticals, Inc., priority 2003, dated 2014).
Values belong to the molecule of their own block, whether it stands above or below them.

Key:
A549 cells = experiment: in vitro antiproliferation assay, A549 (lung); assay type: cell-based
Description: (§1) The IC50 values of various compounds against a various different tumor cell lines were determined using standard in vitro antiproliferation assays. The tumor cell lines tested were as follows: A549 (lung); H1299 (lung), ACHN (kidney/p53 wt), CAKI (renal cell carcinoma), NCI-H460 (lung); HCT116 (colon/p53w0; HELA (cervix/p53 wt), HUH7 (liver/p53 wt), HUVEC (primary endothelial), LNCAP (prostate), HT-29 (colon); MCF-7 (breast); MCF-7 (breast/ER positive), MDA MB435S (breast); MDA MB231 (breast/ER negative), DU145 (prostate); BxPC-3 (pancreatic); SKOV-3 (ovarian); HepG2 (hepatic), NDHF primary normal human dermal fibroblast), SKMEL28 (breast/p53mut), SKMEL5 (breast/p53 wt), U20S (bone) and PC3 (prostate). […] A blank indicates the specified compound was not tested against the specified cell line.

H1299 cells = experiment: in vitro antiproliferation assay, H1299 (lung); assay type: cell-based
Description: as §1

[1] = A549 (lung) cells, antiproliferation
[2] = A549 (lung) cells, in vitro antiproliferation
[3] = H1299 (lung) cells, in vitro antiproliferation
[4] = Table 5, in vitro antiproliferation, A549 (lung) cells
[5] = Table 5, in vitro antiproliferation, H1299 (lung) cells
[6] = IC50 class against A549 (lung) tumor cells
[7] = IC50 class against H1299 (lung) tumor cells
[8] = Table 7, in vitro antiproliferation, A549 (lung) cells

IC50 (A549 cells; [1]): ≤ 20 µM
IC50 (H1299 cells; H1299 (lung) cells, antiproliferation): ≤ 20 µM
SMILES: Fc1cnc(Nc2cc(-c3ncco3)cc(C(F)(F)F)c2)nc1Nc1cc(-c2ncco2)cc(C(F)(F)F)c1 [compound 892]

IC50 (A549 cells; [2]): ≤ 20 µM
IC50 (H1299 cells; [3]): ≤ 20 µM
SMILES: COc1cc(Nc2ncc(F)c(Nc3ccc(OC)c(OC)c3)n2)cc(OC)c1 [compound 856]

IC50 (A549 cells; A549 (lung) cells): ≤ 20 µM
IC50 (H1299 cells; H1299 (lung) cells): ≤ 20 µM
SMILES: Cc1c(O)cccc1Nc1ncc(F)c(Nc2ccc3c(c2)NC(=O)CO3)n1 [compound 1063]

IC50 (A549 cells; [4]): > 20 µM
IC50 (H1299 cells; [5]): > 20 µM
SMILES: Cc1cc(Nc2ncc(F)c(Nc3ccc4c(c3)OCO4)n2)cc(C(F)(F)F)c1 [compound 542]

IC50 (A549 cells; [6]): ≤ 20 µM
IC50 (H1299 cells; [7]): ≤ 20 µM
SMILES: CC1(C)COc2ccc(Nc3nc(Nc4cccc(-c5ncco5)c4)ncc3F)cc2N1 [compound 590]

IC50 (A549 cells; [4]): ≤ 20 µM
IC50 (H1299 cells; [5]): ≤ 20 µM
SMILES: COc1cc(Nc2ncc(F)c(Nc3ccc4c(c3)OC(F)(F)C(F)(F)O4)n2)cc(C(F)(F)F)c1 [compound 536]

IC50 (A549 cells; [4]): ≤ 20 µM
IC50 (H1299 cells; [5]): ≤ 20 µM
SMILES: Fc1cnc(Nc2cc(Cl)cc(Cl)c2)nc1Nc1ccc2c(c1)OCCO2 [compound 530]

IC50 (A549 cells; [6]): ≤ 20 µM
IC50 (H1299 cells; [7]): ≤ 20 µM
SMILES: Cc1cc(Nc2ncc(F)c(NC(C)C)n2)ccc1N1CCN(C)CC1 [compound 217]

IC50 (A549 cells; A549 (lung) cells): ≤ 20 µM
IC50 (H1299 cells; H1299 (lung) cells): ≤ 20 µM
SMILES: CC1(C)Oc2ccc(Nc3nc(Nc4ccc5c(cnn5C(C)(C)CC5CCCCC5)c4)ncc3F)cc2NC1=O [compound 1092]

IC50 (A549 cells; [4]): ≤ 20 µM
IC50 (H1299 cells; [5]): ≤ 20 µM
SMILES: Fc1cnc(Nc2cc(Cl)cc(Cl)c2)nc1Nc1ccc2c(c1)OC(F)(F)O2 [compound 564]

IC50 (A549 cells; [4]): ≤ 20 µM
IC50 (H1299 cells; [5]): > 20 µM
SMILES: COc1cc(Nc2ncc(F)c(N(C)c3ccc4c(c3)OCCO4)n2)cc(OC)c1 [compound 546]

IC50 (A549 cells; Homo sapiens, IC50 class against A549 (lung) tumor cells): ≤ 20 µM
IC50 (H1299 cells; Homo sapiens, NCI-H1299, IC50 class against H1299 (lung) tumor cells): ≤ 20 µM
SMILES: Fc1cnc(Nc2cccc(N3CCOCC3)c2)nc1Nc1cc(C2CC2)[nH]n1 [compound 207]

IC50 (A549 cells; [4]): ≤ 20 µM
IC50 (H1299 cells; [5]): ≤ 20 µM
SMILES: Fc1cnc(Nc2cc(Cl)cc(Cl)c2)nc1Nc1ccc2c(c1)OCO2 [compound 543]

IC50 (A549 cells; [2]): ≤ 20 µM
IC50 (H1299 cells; [3]): ≤ 20 µM
SMILES: Oc1cccc(Nc2nc(Nc3ccc(OC(F)(F)F)c(Cl)c3)ncc2F)c1 [compound 781]

IC50 (A549 cells; [6]): ≤ 20 µM
IC50 (H1299 cells; [7]): ≤ 20 µM
SMILES: CCOC(=O)N1CCN(c2cccc(Nc3ncc(F)c(N(C)C4CCC4)n3)c2)CC1 [compound 130]

IC50 (A549 cells; [4]): ≤ 20 µM
IC50 (H1299 cells; [5]): ≤ 20 µM
SMILES: Cc1cc(Nc2ncc(F)c(Nc3ccc4c(c3)OC(F)(F)O4)n2)cc(Cl)c1O [compound 566]

IC50 (H1299 cells; H1299 (lung) cells): > 20 µM
SMILES: CC(C)(CC1CCC1)n1ncc2ccc(Nc3ncc(F)c(Nc4ccc(Cl)c(Cl)c4)n3)cc21 [compound 1103]

IC50 (H1299 cells; in vitro antiproliferation, H1299 (lung) cells, Table 4, compounds with no designated stereochemistry tested as racemate): ≤ 20 µM
SMILES: Cc1cc(C)cc(Nc2ncc(F)c(Nc3ccc4c(c3)NC(=O)C(C)O4)n2)c1 (stereo not drawn) [compound 230]

IC50 (H1299 cells; [3]): ≤ 20 µM
SMILES: COc1cc(Nc2ncc(F)c(Nc3cc(OC)cc(OC)c3)n2)cc(OC)c1 [compound 840]

IC50 (A549 cells; in vitro antiproliferation, A549 (lung) cells, Table 4, compounds with no designated stereochemistry tested as racemate): ≤ 20 µM
SMILES: CC1(C)Oc2ccc(Nc3nc(Nc4cc(Cl)cc(Cl)c4)ncc3F)cc2NC1=O [compound 308]

IC50 (A549 cells; [2]): ≤ 20 µM
SMILES: CCOc1cccc(Nc2ncc(F)c(Nc3cccc(OCC)c3)n2)c1 [compound 707]

IC50 (A549 cells; [8]): > 20 µM
SMILES: CC(C)Oc1ccc(Nc2nc(Nc3ccc4oc(C(=O)N5CCCC5)cc4c3)ncc2F)cc1 [compound 640]

IC50 (A549 cells; [1]): ≤ 20 µM
SMILES: CC(C)c1ccc(Nc2nc(Nc3ccc(OCCO)cc3)ncc2F)cc1 [compound 937]

IC50 (A549 cells; [8]): > 20 µM
SMILES: CCOC(=O)c1cc2cc(Nc3ncc(F)c(Nc4ccc(C(C)(C)C)cc4)n3)ccc2[nH]1 [compound 617]

IC50 (A549 cells; [8]): > 20 µM
SMILES: O=C(O)c1cc2cc(Nc3ncc(F)c(Nc4cccc(O)c4)n3)ccc2[nH]1 [compound 621]

IC50 (A549 cells; [1]): ≤ 20 µM
SMILES: CC(C)c1cccc(Nc2nc(Nc3cccc(OCCO)c3)ncc2F)c1 [compound 966]

IC50 (A549 cells; [4]): > 20 µM
SMILES: O=C(COc1ccc(Nc2ncc(F)c(Nc3ccc4c(c3)OCCO4)n2)cc1)NCCO [compound 474]

IC50 (A549 cells; [8]): > 20 µM
SMILES: COC(=O)c1cc2cc(Nc3ncc(F)c(Nc4ccc5c(c4)OCCO5)n3)ccc2o1 [compound 638]

IC50 (A549 cells; [2]): > 20 µM
SMILES: COc1cc(Nc2ncc(F)c(Nc3cccc(O)c3)n2)cc(OC)c1OC [compound 760]

IC50 (A549 cells; [4]): > 20 µM
SMILES: CCCCOc1ccc(Nc2ncc(F)c(Nc3ccc4c(c3)OCCO4)n2)cc1 [compound 479]

IC50 (A549 cells; [4]): > 20 µM
SMILES: O=C(O)COc1ccc(Nc2ncc(F)c(Nc3ccc4c(c3)OCCO4)n2)cc1 [compound 490]

IC50 (A549 cells; [1]): > 20 µM
SMILES: COC(=O)COc1cccc(Nc2ncc(F)c(Nc3ccc(OC(C)C)cc3)n2)c1 [compound 977]
